Experimental data reported in patent publication US5416209A, “5,6-dihydro-dibenz[b,e]azepine-6,11-dione-11-oximes” (Bayer Aktiengesellschaft, priority 1991, dated 1995).

Each compound was assayed on HIV virus (HIV-infected normal human blood lymphocytes (PBLs) or alternatively H9 cells) (assay: HIV infection in cell culture (inhibition of virus-induced syncytia)). Settings: Human immunodeficiency virus 1, 72 h, concentration at which 50% of the virus-induced syncytia are suppressed, day 3 to 6 after infection, 37° C.
Format: cell-based
Procedure: HIV infection in cell culture
The HIV test was carried out with slight modifications according to the method of Pauwels et al. [cf. Journal of Virological Methods 20, (1988), 309-321].
Normal human blood lymphocytes (PBLs) were concentrated by means of Ficoll-Hypaque and stimulated with phytohaemagglutinin (90 μg/ml) and interleukin-2 (40 U/ml) in RPMI 1640 and 20% foetal calf serum. For infection with the infectious HIV, PBLs were pelleted and the cell pellet was then suspended in 1 ml of HIV virus adsorption solution and incubated for 1 hour at 37° C.
Alternatively, HIV-susceptible H9 cells were employed instead of normal human blood lymphocytes for testing the antiviral effects of the compounds according to the invention.
The virus adsorption solution was centrifuged and the infected cell pellet was taken up in growth medium so that a concentration of 1×10^5 cells per ml was established. The cells infected in this way were pipetted into the wells of 96-well microtiter plates to give 1×10^4 cells/well.
The first vertical row of the microtiter plate contained only growth medium and cells which had not been infected, but otherwise treated exactly as described above (cell control). The second vertical row of the microtiter plate contained only HIV-infected cells (virus control) in growth medium. The other wells contained the compounds according to the invention in differing concentrations, starting from the wells of the 3rd vertical row of the microtiter plate, from which the test substances were diluted 2^10 times in 2-fold steps.
The test batches were incubated at 37° C. until, in the untreated virus control, the syncytia formation typical of HIV occurred (between day 3 and 6 after infection), which was then microscopically assessed. Under these test conditions, in the untreated virus control about 20-50 syncytia resulted, while the untreated cell control contained no syncytia.
The IC50 values were determined as the concentration of the treated and infected cells at which 50% (about 10-20 syncytia) of the virus-induced syncytia were suppressed by treatment with the compound according to the invention.

Compared with `CON=c1c2cc(Cl)ccc2[nH]c(=O)c2ccccc12` [Example 6], `CCO/N=c1/c2cc(Cl)ccc2[nH]c(=O)c2ccccc12` [Example 4, (E) -2-Chloro-11-ethoxyimino-6-oxo-5,6-dihydro-11-H-dibenz [b,e]azepine] is 25-fold lower in IC50: 1500 nM for the first, 60 nM for the second.

Compared with `CCO/N=c1\c2cc(Cl)ccc2[nH]c(=O)c2ccccc12` [Example 8], `COC(=O)CON=c1c2cc(Cl)ccc2[nH]c(=O)c2ccccc12` [Example 24] is 4.6-fold higher in IC50: 500 nM for the first, 2300 nM for the second. The first is the more potent here.

Going from `Cc1ccnc2c1NC(=O)c1cccnc1N2C1CC1` [BIRG 587, reference compound] to `O=c1[nH]c2ccc(Cl)cc2c(=NOC2CCCCO2)c2ccccc12` (centres unmarked) [Example 31], the IC50 rises from 90 nM to 250 nM (2.8-fold).

`O=c1[nH]c2ccc(Cl)cc2c(=NOCc2c(F)c(F)c(F)c(F)c2F)c2ccccc12` [Example 18] and `O=c1[nH]c2ccc(Cl)cc2c(=NOCc2ccccc2)c2ccccc12` [Example 17] are within 1.5-fold of each other in IC50: 1000 nM for the first, 700 nM for the second.
